Experimental data reported in US11661440B2 (priority 2015, dated 2023).
Entries after “also recorded” stand apart in the source; their conditions may differ. Ends that are not written are not given here.

Experiments:
NMDA receptor = type: cell-based, rat
[1] = target: GluN2B recombinant subunit (Rattus norvegicus, UniProt Q00960); conditions: cited from earlier work
[2] = target: NMDA receptor GluN2B subunit (Mus musculus, UniProt Q01097); conditions: cited from earlier work
NMDA receptor GluN2B subunit, sequence (Q01097 whole entry, looked up): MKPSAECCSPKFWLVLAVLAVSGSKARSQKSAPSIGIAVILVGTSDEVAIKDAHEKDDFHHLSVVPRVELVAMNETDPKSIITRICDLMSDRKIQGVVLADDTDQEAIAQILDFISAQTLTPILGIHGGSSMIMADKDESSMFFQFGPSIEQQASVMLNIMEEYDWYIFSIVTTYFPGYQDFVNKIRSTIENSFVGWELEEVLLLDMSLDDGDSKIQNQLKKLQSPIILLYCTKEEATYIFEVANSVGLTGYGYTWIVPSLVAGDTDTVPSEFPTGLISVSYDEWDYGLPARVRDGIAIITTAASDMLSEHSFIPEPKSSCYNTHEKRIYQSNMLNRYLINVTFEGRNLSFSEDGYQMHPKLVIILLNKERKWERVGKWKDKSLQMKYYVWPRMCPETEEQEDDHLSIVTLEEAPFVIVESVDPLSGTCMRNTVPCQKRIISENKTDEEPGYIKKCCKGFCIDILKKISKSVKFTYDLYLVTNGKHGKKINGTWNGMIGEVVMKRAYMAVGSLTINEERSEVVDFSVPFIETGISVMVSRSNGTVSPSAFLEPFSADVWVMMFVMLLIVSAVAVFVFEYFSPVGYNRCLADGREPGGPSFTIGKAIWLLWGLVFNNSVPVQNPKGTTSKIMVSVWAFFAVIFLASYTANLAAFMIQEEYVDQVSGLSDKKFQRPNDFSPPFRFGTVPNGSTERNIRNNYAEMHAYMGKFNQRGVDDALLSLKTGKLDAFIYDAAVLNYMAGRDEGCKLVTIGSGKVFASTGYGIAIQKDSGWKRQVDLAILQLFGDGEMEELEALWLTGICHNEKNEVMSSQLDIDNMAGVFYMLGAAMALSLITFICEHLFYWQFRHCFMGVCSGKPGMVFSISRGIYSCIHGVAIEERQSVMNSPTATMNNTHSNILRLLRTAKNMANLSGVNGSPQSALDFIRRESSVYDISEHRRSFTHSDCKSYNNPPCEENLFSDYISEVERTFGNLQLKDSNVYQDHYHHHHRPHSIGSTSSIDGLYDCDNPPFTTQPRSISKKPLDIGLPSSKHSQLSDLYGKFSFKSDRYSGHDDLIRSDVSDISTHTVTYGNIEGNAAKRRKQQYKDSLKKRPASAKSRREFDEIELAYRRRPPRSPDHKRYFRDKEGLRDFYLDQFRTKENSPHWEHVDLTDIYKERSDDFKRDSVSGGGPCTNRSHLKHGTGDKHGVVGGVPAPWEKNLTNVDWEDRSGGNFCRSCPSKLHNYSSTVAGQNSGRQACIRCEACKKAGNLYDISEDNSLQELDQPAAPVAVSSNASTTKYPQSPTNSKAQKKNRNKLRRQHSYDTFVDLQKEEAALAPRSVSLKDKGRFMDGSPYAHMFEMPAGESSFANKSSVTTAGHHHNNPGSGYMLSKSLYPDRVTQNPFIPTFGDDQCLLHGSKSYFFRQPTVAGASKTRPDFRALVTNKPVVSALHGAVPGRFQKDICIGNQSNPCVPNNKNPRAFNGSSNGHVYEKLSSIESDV

GluN2B recombinant subunit, sequence (Q00960 27-1482, other chains not shown): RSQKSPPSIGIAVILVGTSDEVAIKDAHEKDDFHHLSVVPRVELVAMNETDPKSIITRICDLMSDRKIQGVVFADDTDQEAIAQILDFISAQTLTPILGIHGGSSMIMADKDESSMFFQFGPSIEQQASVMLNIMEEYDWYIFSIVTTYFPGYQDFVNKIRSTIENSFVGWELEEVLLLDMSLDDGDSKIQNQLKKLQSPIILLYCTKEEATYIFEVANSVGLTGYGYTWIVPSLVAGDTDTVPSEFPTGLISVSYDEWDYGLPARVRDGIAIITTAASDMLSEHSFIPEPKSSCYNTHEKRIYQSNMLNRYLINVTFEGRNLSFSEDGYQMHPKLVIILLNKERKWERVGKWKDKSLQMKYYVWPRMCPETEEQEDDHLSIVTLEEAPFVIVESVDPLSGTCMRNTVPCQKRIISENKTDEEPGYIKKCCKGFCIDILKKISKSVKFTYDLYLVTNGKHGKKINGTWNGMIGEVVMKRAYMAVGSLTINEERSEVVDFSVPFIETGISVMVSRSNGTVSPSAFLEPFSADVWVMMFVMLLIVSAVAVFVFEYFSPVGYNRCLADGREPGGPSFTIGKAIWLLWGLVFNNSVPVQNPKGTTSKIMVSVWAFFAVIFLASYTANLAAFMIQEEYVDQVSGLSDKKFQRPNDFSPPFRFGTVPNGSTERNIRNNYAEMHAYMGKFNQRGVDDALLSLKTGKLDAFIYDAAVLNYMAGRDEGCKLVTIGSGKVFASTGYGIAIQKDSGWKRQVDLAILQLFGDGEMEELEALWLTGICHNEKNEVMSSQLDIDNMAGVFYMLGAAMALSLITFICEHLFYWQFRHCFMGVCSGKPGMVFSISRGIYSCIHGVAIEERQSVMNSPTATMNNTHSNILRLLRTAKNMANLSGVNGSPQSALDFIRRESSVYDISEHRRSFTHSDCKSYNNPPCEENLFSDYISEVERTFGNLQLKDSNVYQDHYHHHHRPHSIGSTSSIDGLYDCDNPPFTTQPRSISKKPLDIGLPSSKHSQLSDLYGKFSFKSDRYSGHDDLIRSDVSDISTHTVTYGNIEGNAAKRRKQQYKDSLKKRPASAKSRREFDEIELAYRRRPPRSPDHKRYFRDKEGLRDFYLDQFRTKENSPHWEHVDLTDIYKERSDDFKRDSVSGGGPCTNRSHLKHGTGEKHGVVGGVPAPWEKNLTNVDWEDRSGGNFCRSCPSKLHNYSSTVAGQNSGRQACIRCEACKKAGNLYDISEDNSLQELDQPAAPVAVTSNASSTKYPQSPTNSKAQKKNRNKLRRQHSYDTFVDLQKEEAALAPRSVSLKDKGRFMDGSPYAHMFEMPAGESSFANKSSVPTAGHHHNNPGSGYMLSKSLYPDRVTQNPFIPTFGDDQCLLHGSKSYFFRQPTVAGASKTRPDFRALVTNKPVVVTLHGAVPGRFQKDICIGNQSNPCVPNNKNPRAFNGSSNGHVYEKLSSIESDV

For C[C@]12N[C@H](Cc3ccccc31)c1ccccc12 [(+)-MK-801, dizocilpine], which “blocking of input current due to stimulation by peptide SEQ ID NO: 4” value (NMDA receptor) is on record?
The value was “more than 90%”.

What about the “blocking of the response (in words)” value (NMDA receptor) of the same compound?
The value was “almost total blocking of the response”.

What about the “reduction in the response obtained by stimulation with NMDA/glycine” value (NMDA receptor) of the same compound?
The value was “more than 50%”.

For C[C@@H](CN1CCC(Cc2ccccc2)CC1)[C@@H](O)c1ccc(O)cc1 [Ro 25-9681], which “blocking of the response evoked by NMDA/glycine” value (NMDA receptor) is on record?
Its value is “less than 50%”.

What about the IC50 [1] of the same compound?
The IC50 was 9 nM.

For GEγγLQγNQγLIRγKSN-NH2 [conantokin-G], which IC50 [2] is on record?
The IC50 was 500 nM.

And the IC50 [1]?
The IC50 was 100 nM.

For KLGMRSELQIDNDQDAD [SEQ ID NO: 4], which “agonist effect: input current evoked by the peptide (in words)” value (NMDA receptor) is on record?
The value was “evoked input current via the NMDA receptor; also recorded: an input current was found”.
